≈ marks a conversion by molar mass, not a printed value. Where “and” joins values, the source holds several entries; their conditions need not be identical. Identical values can stand only once. Like-named read-outs stand apart in the source and are kept apart here. Blank lines part the entries; values can stand above or below the compound they belong to.
Key:
[1] = Nitrite scavenging activity, diazo coupling spectrophotometric method (in vitro anti-tumour experiment)
Text: Numerous methods for nitrite clearance have been reported, such as spectrophotometric, chromatographic-mass spectrometric, electrochemical, and fluorescence methods. Considering various factors, we decided to use diazo coupling spectrophotometry to perform this experiment. […] On the other hand, it may be that ARG-V also has the ability to bind nitrite such that the nitrite content decreased, achieving the purpose of clearing nitrite.
Our team has studied the […] scavenging activity of ARG and ARG-V using diazo coupling spectrophotometric method.

[2] = Solubility according to the Chinese Pharmacopoeia, 2015 edition; format: physicochemical; conditions: for Solubility in Acetonitrile: solvent acetonitrile; for Solubility in Acetonitrile:water 45:55: solvent acetonitrile:water 45:55; for Solubility in Cloroform: solvent chloroform; for Solubility in Ethyl acetate: solvent ethyl acetate; for Solubility in Water: solvent water
Method: Solubility is a physical property of the drug. The reaction was performed according to the Chinese Pharmacopoeia, 2015 edition.

H22 tumour-bearing mice = experiment: Serum ALT, AST, BUN and CRE in H22 tumour-bearing mice; conditions: for BUN / CRE: Fig. 2(b); for Serum ALT / Serum AST: Fig. 2(a)
Method: (§1) To prepare the ascitic tumour-bearing model, 0.2 mL of the cell suspension (1 × 10^5 cells/mouse) was injected into the shoulder of the right limb subcutaneously in each mouse. Twenty-four hours after the tumour inoculation with H22 cells, the ICR mice were divided into 7 groups as follows: the normal group, the model group, the cyclophosphamide (CTX) group, the ARG group, the high dose ARG-V group, the middle dose ARG-V group, and the low dose ARG-V group. The positive control group received CTX at a dosage of 25 mg/kg by intraperitoneal injection. The model group and the normal group were treated with the same amount of normal saline by P.O. once a day. The mice were given an ARG suspension solution mixed with sodium carboxymethyl cellulose at a daily dose of 40 mg/kg, and ARG-V dissolved in saline at different dosages was administered orally. The mice in each group were treated continuously for 14 days. Before and after each drug administration, the size of the tumours were measured, and the weights of the mice were recorded. Twenty-four hours after the last administration, the mice were killed by cervical dislocation, and blood samples were collected from the eyes of the mice. The tumour, spleen, and thymus of the mice were taken out and weighed on an electronic balance.
AST and ALT are clinical indexes of liver function, used in medicine to judge whether the liver is damaged. BUN and CRE are used to judge whether the kidney is damaged. They were analysed by a commercially available reagent kit according to the instructions.

[3] = system: H22 hepatocellular carcinoma; experiment: In vivo anti-tumour experiment in H22 tumour-bearing mice (tumour growth, body weight, immune organ indexes); conditions: 14 days
Text: SPF (specific pathogen free) grade, male ICR mice with body weights ranging from 19 to 21 g were obtained from the Laboratory Animal Quality Testing Center of Jilin Province. The ICR mice were divided into 7 groups as follows: the normal group, the model group, the cyclophosphamide (CTX) group, the ARG group, the high dose ARG-V group, the middle dose ARG-V group and the low dose ARG-V group. H22 hepatocarcinoma cells were purchased from the Institute of Biochemistry and Cell Biology, CAS.
as §1

[4] = system: serum cytokines TNF-α, IL-2, VEGF; experiment: Serum cytokines (TNF-α, IL-2, VEGF) by ELISA in H22 tumour-bearing mice; format: in vivo, ICR mice; conditions: for Expression level of IL-2: compared to the tumour model group; for Expression level of IL-2 / Serum TNF-α level: Fig. 2(c); for Serum VEGF: Fig. 2(d)
Method: as §1
The serum levels of the cytokines IL-2, IL-6, VEGF and TNF-α were analysed using a commercially available ELISA kit according to the manufacturer’s instruction.

[5] = Pharmacokinetics after oral (intragastric) administration to rats, plasma ARG by HPLC, 3P97 fit; format: in vivo, Wistar rats; conditions: for AUC value: oral; for AUC / CL/F(s): intragastric, X ± SD, n = 6
Method: Male Wistar rats (8 weeks, 230–250 g) were purchased from Liaoning Changsheng Biotechnology Co., Ltd. (Certificate No. SCXK-2015-0001) and acclimated to the laboratory environment for 1 week.
After the frozen plasma thawed, a 0.2 mL rat plasma sample was placed in an Eppendorf tube containing 5 µL of the IS working solution and 1 mL of acetonitrile with 0.1% formic acid and mixed evenly with a turbine mixer for 3 minutes. It was then separated by centrifugation (12000 rpm, 10 min, 4 °C). The supernatant was withdrawn and evaporated to dryness under N2. The dry residue was reconstituted by mixing it with 50 μL of acetonitrile for 1 minute and separated by centrifugation (16000 rpm, 5 min, 4 °C), and a 20 μL aliquot was injected into the HPLC system for analysis.
The rats received ARG and ARG-V by oral administration. Blood samples were obtained via the oculi chorioideae vein before oral administration and at 1, 3, 5, 10, 15, 30, 45, 60, 90, 120, 150, 180, 240, and 360 min after administration. The whole blood samples were separated by centrifugation (8000 rpm, 10 min), and the plasma was obtained and stored at −20 °C until analysis.
Analytes were separated on a Thermo BDS HYPERSIL C18 column (4.6 × 250 mm, 5 μm) at a flow rate of 1.0 mL/min. The column was maintained at 30 °C. The mobile phase consisted of acetonitrile and 0.1% formic acid water (45:55 v/v). Detection was done at a wavelength of 280 nm.
The values are presented as the mean ± standard deviation (SD). The concentration-time curve was drawn, and data were processed using the 3P97 software.

Beagle dogs = system: Beagle dogs; parameters: method as in earlier work; conditions: cited from earlier work
[6] = parameters: method as in PMID 27685612; conditions: patients with advanced pancreatic cancer refractory to gemcitabine; second peaks indicate enterohepatic circulation; cited from earlier work
[7] = Stability of ARG QC samples in rat plasma; format: in vitro ADME; conditions: three concentrations; room temperature 12 hours, −20 °C for a month, three freeze-thaw cycles
Method: The ARG stock solution was diluted with plasma to make quality control (QC) samples, and the QC samples were prepared at three concentrations of low, medium and high (0.02, 0.1, and 2 μg/mL). The QC samples were kept at room temperature for 12 h, and freeze-thaw cycles were repeated 3 times. The QC samples were kept at −20 °C for 30 days.

[8] = concentration 0.125 mg/mL, in % (unit assumed)
[9] = concentration 0.25 mg/mL, in % (unit assumed)
[10] = concentration 0.5 mg/mL, in % (unit assumed)
[11] = concentration 1 mg/mL, in % (unit assumed)
[12] = concentration 2 mg/mL, in % (unit assumed)
[13] = concentration 4 mg/mL, in % (unit assumed)
[14] = 40 mg/kg oral daily, mean ± SD, n = 8
[15] = first of three concentrations (low dosage)
[16] = second of three concentrations (middle dosage)
[17] = third of three concentrations (high dosage)
[18] = 25 mg/kg intraperitoneal, mean ± SD, n = 8

IC50 (nitrite scavenging) [1]: 2190 µg/mL (≈ 4.64 mM)
Solubility in Acetonitrile [2]: slight soluble
Solubility in Acetonitrile:water 45:55 [2]: very soluble
Solubility in Cloroform [2]: freely soluble
Solubility in Ethyl acetate [2]: almost insoluble
Solubility in Water [2]: freely soluble
AUC value [5, 15]: 253 ng·h/mL
AUC value [5, 16]: 391 ng·h/mL
AUC value [5, 17]: 574 ng·h/mL
SMILES: COc1ccc(CC2COC(=O)C2Cc2ccc(OC(=O)C(N)C(C)C)c(OC)c2)cc1OC (stereo not drawn) [ARG-V]
Clearance rate on nitrite [1, 8]: 20.22 ± 0.00
Clearance rate on nitrite [1, 9]: 27.90 ± 0.05
Clearance rate on nitrite [1, 10]: 35.21 ± 0.07
Clearance rate on nitrite [1, 11]: 45.51 ± 0.01
Clearance rate on nitrite [1, 12]: 64.04 ± 0.01
Increase of nitrite removal ability compared with ARG ([1]; concentration 4 mg/mL): more than 75%
Clearance rate on nitrite [1, 13]: 69.10 ± 0.04
BUN (H22 tumour-bearing mice; compared to the CTX group): significant difference
Serum ALT (H22 tumour-bearing mice; compared to the model group): decreased
Serum AST (H22 tumour-bearing mice; compared to the model group): decreased
BUN (H22 tumour-bearing mice; compared to the model group): decreased significantly
CRE (H22 tumour-bearing mice; compared to the model group): decreased significantly
Inhibitory rate ([3]; 20 mg/kg oral daily): 42.46%
Tumor weight ([3]; 20 mg/kg oral daily, mean ± SD, n = 8): 1.03 ± 0.19^**,##,a g
Inhibitory rate ([3]; 40 mg/kg oral daily): 69.2% and 69.27%
Tumor weight [3, 14]: 0.55 ± 0.15^**,aa g
Inhibitory rate ([3]; 80 mg/kg oral daily): 63.13%
Tumor weight ([3]; 80 mg/kg oral daily, mean ± SD, n = 8): 0.66 ± 0.17^**,#,aa g
Expression level of IL-2 [4]: significantly higher
Serum VEGF ([4]; compared with the model group): decreased
Serum TNF-α level ([4]; three doses, compared with the CTX group): increased significantly

SMILES: COc1cc(C[C@H]2C(=O)OC[C@@H]2Cc2ccc(OC)c(OC)c2)ccc1O [ARG, Arctigenin]
IC50 (nitrite scavenging) [1]: 17490 µg/mL (≈ 47 mM)
Clearance rate on nitrite [1, 8]: 17.60 ± 0.02
Clearance rate on nitrite [1, 9]: 23.41 ± 0.02
Clearance rate on nitrite [1, 10]: 27.72 ± 0.03
Clearance rate on nitrite [1, 11]: 31.09 ± 0.02
Clearance rate on nitrite [1, 12]: 34.46 ± 0.02
Clearance rate on nitrite [1, 13]: 39.14 ± 0.07
Toxicity in Beagle dogs (Beagle dogs; 60 mg/kg group, subcutaneous injection, except the stimulus response at the administration location): no overt toxicity
Toxicity in Beagle dogs (Beagle dogs; repeated subcutaneous injection of large doses): can induce injury to the liver and biliary duct
Solubility in Acetonitrile [2]: very soluble
Solubility in Acetonitrile:water 45:55 [2]: very soluble
Solubility in Cloroform [2]: freely soluble
Solubility in Ethyl acetate [2]: freely soluble
Solubility in Water [2]: almost insoluble
Form of ARG in patients [6]: exists as arctigenin glucuronide (AGG)
BUN (H22 tumour-bearing mice; compared to the CTX group): no significant difference
CRE (H22 tumour-bearing mice; compared to the CTX group): no significant difference
Serum ALT (H22 tumour-bearing mice; compared to the model group): decreased
Serum AST (H22 tumour-bearing mice; compared to the model group): decreased
Inhibitory rate ([3]; 40 mg/kg oral daily): 26.26%
Tumor weight [3, 14]: 1.32 ± 0.34 g
AUC ([5]; high dosage): 25419.859 ± 5497.001 (ng/mL)*min
CL/F(s) ([5]; high dosage): 0.009 ± 0.003 mg/kg/min/(ng/mL)
AUC ([5]; low dosage): 13687.547 ± 3050.502 (ng/mL)*min
CL/F(s) ([5]; low dosage): 0.004 ± 0.001 mg/kg/min/(ng/mL)
AUC ([5]; middle dosage): 18971.963 ± 5515.267 (ng/mL)*min
CL/F(s) ([5]; middle dosage): 0.006 ± 0.003 mg/kg/min/(ng/mL)
AUC value [5, 15]: 228 ng·h/mL
AUC value [5, 16]: 316 ng·h/mL
AUC value [5, 17]: 424 ng·h/mL
Stability in rat plasma QC samples [7]: good results

IC50 (nitrite scavenging) [1]: 690 µg/mL (≈ 3.92 mM)
SMILES: O=C1O[C@H]([C@@H](O)CO)C(O)=C1O [VC]
Clearance rate on nitrite ([1]; concentration 0.125 mg/mL): 7.30 ± 0.06
Clearance rate on nitrite ([1]; concentration 0.25 mg/mL): 17.23 ± 0.00
Clearance rate on nitrite ([1]; concentration 0.5 mg/mL): 25.84 ± 0.03
Clearance rate on nitrite ([1]; concentration 1 mg/mL): 54.49 ± 0.02
Clearance rate on nitrite ([1]; concentration 2 mg/mL): 96.32 ± 0.00
Clearance rate on nitrite ([1]; concentration 4 mg/mL): 97.75 ± 0.00

SMILES: O=P1(N(CCCl)CCCl)NCCCO1 (stereo not drawn) [CTX, Cyclophosphamide]
Serum ALT (H22 tumour-bearing mice; compared to the model group): obviously increased
Serum AST (H22 tumour-bearing mice; compared to the model group): obviously increased
Increase of body weight ([3]; 25 mg/kg intraperitoneal): 4.37 g
Inhibitory rate ([3]; 25 mg/kg intraperitoneal): 72.06%
Spleen index [3, 18]: 4.40 ± 0.40 mg/g
Thymus index [3, 18]: 1.24 ± 0.20 mg/g
Tumor weight [3, 18]: 0.50 ± 0.11 g
Expression level of IL-2 [4]: obviously decreased
Serum TNF-α level ([4]; compared with the model group): significantly decreased
Serum VEGF ([4]; compared with the model group): decreased significantly

— article PMC5818482, “Experimental study of the anti-tumour activity and pharmacokinetics of arctigenin and its valine ester derivative” (Scientific Reports, 2018)
